Results as given in patent US20260041679A1, “METHOD OF TREATING HYPERTENSION WITH THE ALDOSTERONE SYNTHASE INHIBITOR BAXDROSTAT” (CINCOR PHARMA, INC., priority 2022, published 2026).

Tested on: patients with uHTN
Test: Study 124 Part 2: 2 mg baxdrostat monotherapy for 4 weeks, SBP and safety
Assay type: in vivo, human
Conditions: for AESI, % / AESI, e - Number of events / AESI, n - Number of subjects / SAEs, % / SAEs, e - Number of events / SAEs, n - Number of subjects / TEAEs Drug-Related, % / TEAEs Drug-Related, e - Number of events / TEAEs Drug-Related, n - Number of subjects / TEAEs Leading to death, % / TEAEs Leading to death, e - Number of events / TEAEs Leading to death, n - Number of subjects / TEAEs Leading to dosing discontinuation, % / TEAEs Leading to dosing discontinuation, e - Number of events / TEAEs Leading to dosing discontinuation, n - Number of subjects / TEAEs Leading to study discontinuation, % / TEAEs Leading to study discontinuation, e - Number of events / TEAEs Leading to study discontinuation, n - Number of subjects / TEAEs, % / TEAEs, e - Number of events / TEAEs, n - Number of subjects: Part 2
Procedure: Study 124 is a double-blind, placebo-controlled, dose range finding, multicenter study conducted in patients with uHTN receiving background antihypertensive agent(s) that are either an ACEI or an ARB, an ACEI/ARB plus a thiazide diuretic, or an ACEI/ARB plus a calcium channel blocker. The study consists of two parts: Part 1 consists of an 8-week treatment period in which the patients are to be assigned to one of 4 dose groups in equal ratio testing 0.5 mg, 1 mg, and 2 mg baxdrostat effects compared to a placebo. Patients are to administer double-blind baxdrostat tablets once per day while they continue taking the background antihypertensive medications. After 8 weeks of double-blind treatment, patients were to enter part 2 of the study unless the patient was assigned to the 2 mg group and the SBP remains ≥130 mmHg. In part 2 of the study, all patients are to cease dosing with background antihypertensive medication and take only baxdrostat 2 mg dose as a monotherapy for 4 weeks.
The secondary objectives are to evaluate the change from baseline in mean seated DBP with each of the selected dose strengths of baxdrostat compared to placebo after 8 weeks of treatment (Part 1), the change from baseline in 24-hour urine aldosterone and serum aldosterone levels with each of the selected dose strengths of baxdrostat compared to placebo after 8 weeks of treatment (Part 1), the percentage of patients achieving a mean seated SBP<130 mmHg (“responders”) with each of the selected dose strengths of baxdrostat compared to placebo after 8 weeks; and the change from baseline in 24-hour urine renin and serum renin levels with baxdrostat compared to placebo after 8 weeks of treatment. Patients who have completed the Part 2 study through Week 12 or who were considered withdrawn at the end of Part 1 may be eligible to enter a separate open label extension study (Study 130). Part 2 is an exploratory phase of the trial designed to evaluate the effect of 4 weeks of monotherapy with 2 mg baxdrostat in this hypertensive population, but the major goal of the Part 2 period is to transition patients to a long-term open label safety extension study of baxdrostat at the highest dose likely to be used in the hypertension population.
In Part 2, background antihypertensive therapy was discontinued following Part 1, and patients took two mg Baxdrostat for four additional weeks. […] There were two cases of moderate hyperkalemia with K+>/=6.0 mEq/L in the 213 patients in Part 2; both patients had stopped diuretic at the start of Part 2 and developed transient moderate hyperkalemia within 2 weeks.

CCC(=O)N[C@@H]1CCCc2c(-c3ccc4c(c3)CCC(=O)N4C)cncc21 [baxdrostat, (R)—N-(4-(1-methyl-2-oxo-1,2,3,4-tetrahydroquinolin-6-yl)-5,6,7,8-tetrahydroisoquinolin-8-yl) propionamide]
SBP between the start and the end of the four weeks (2 mg only, after withdrawal of background medication): remained stable | safety and tolerability (2 mg, 213 patients who entered Part 2): safe and well-tolerated | cases of moderate hyperkalemia with K+ >/=6.0 mEq/L (213 patients in Part 2): two cases | treatment emergent SAEs (Part 2, 2 mg): 4 events/3 patients with none deemed related to baxdrostat | AESI, % (0.5 mg to 2 mg, n = 63): 0% | AESI, e - Number of events (0.5 mg to 2 mg, n = 63): 0 | AESI, n - Number of subjects (0.5 mg to 2 mg, n = 63): 0 | SAEs, % (0.5 mg to 2 mg, n = 63): 0.0% | SAEs, e - Number of events (0.5 mg to 2 mg, n = 63): 0 | SAEs, n - Number of subjects (0.5 mg to 2 mg, n = 63): 0 | TEAEs Drug-Related, % (0.5 mg to 2 mg, n = 63): 5.6% | TEAEs Drug-Related, e - Number of events (0.5 mg to 2 mg, n = 63): 4 | TEAEs Drug-Related, n - Number of subjects (0.5 mg to 2 mg, n = 63): 3 | TEAEs Leading to death, % (0.5 mg to 2 mg, n = 63): 0.0% | TEAEs Leading to death, e - Number of events (0.5 mg to 2 mg, n = 63): 0 | TEAEs Leading to death, n - Number of subjects (0.5 mg to 2 mg, n = 63): 0 | TEAEs Leading to dosing discontinuation, % (0.5 mg to 2 mg, n = 63): 0% | TEAEs Leading to dosing discontinuation, e - Number of events (0.5 mg to 2 mg, n = 63): 0 | TEAEs Leading to dosing discontinuation, n - Number of subjects (0.5 mg to 2 mg, n = 63): 0 | TEAEs Leading to study discontinuation, % (0.5 mg to 2 mg, n = 63): 0.0% | TEAEs Leading to study discontinuation, e - Number of events (0.5 mg to 2 mg, n = 63): 0 | TEAEs Leading to study discontinuation, n - Number of subjects (0.5 mg to 2 mg, n = 63): 0 | TEAEs, % (0.5 mg to 2 mg, n = 63): 16.7% | TEAEs, e - Number of events (0.5 mg to 2 mg, n = 63): 15 | TEAEs, n - Number of subjects (0.5 mg to 2 mg, n = 63): 9 | AESI, % (1 mg to 2 mg, n = 62): 1.8% | AESI, e - Number of events (1 mg to 2 mg, n = 62): 1 | AESI, n - Number of subjects (1 mg to 2 mg, n = 62): 1 | SAEs, % (1 mg to 2 mg, n = 62): 1.8% | SAEs, e - Number of events (1 mg to 2 mg, n = 62): 2 | SAEs, n - Number of subjects (1 mg to 2 mg, n = 62): 1 | TEAEs Drug-Related, % (1 mg to 2 mg, n = 62): 8.8% | TEAEs Drug-Related, e - Number of events (1 mg to 2 mg, n = 62): 6 | TEAEs Drug-Related, n - Number of subjects (1 mg to 2 mg, n = 62): 5 | TEAEs Leading to death, % (1 mg to 2 mg, n = 62): 0.0% | TEAEs Leading to death, e - Number of events (1 mg to 2 mg, n = 62): 0 | TEAEs Leading to death, n - Number of subjects (1 mg to 2 mg, n = 62): 0 | TEAEs Leading to dosing discontinuation, % (1 mg to 2 mg, n = 62): 3.5% | TEAEs Leading to dosing discontinuation, e - Number of events (1 mg to 2 mg, n = 62): 3 | TEAEs Leading to dosing discontinuation, n - Number of subjects (1 mg to 2 mg, n = 62): 2 | TEAEs Leading to study discontinuation, % (1 mg to 2 mg, n = 62): 0.0% | TEAEs Leading to study discontinuation, e - Number of events (1 mg to 2 mg, n = 62): 0 | TEAEs Leading to study discontinuation, n - Number of subjects (1 mg to 2 mg, n = 62): 0 | TEAEs, % (1 mg to 2 mg, n = 62): 21.1% | TEAEs, e - Number of events (1 mg to 2 mg, n = 62): 26 | TEAEs, n - Number of subjects (1 mg to 2 mg, n = 62): 12 | AESI, % (2 mg, n = 60): 2.4% | AESI, e - Number of events (2 mg, n = 60): 1 | AESI, n - Number of subjects (2 mg, n = 60): 1 | SAEs, % (2 mg, n = 60): 0% | SAEs, e - Number of events (2 mg, n = 60): 0 | SAEs, n - Number of subjects (2 mg, n = 60): 0 | TEAEs Drug-Related, % (2 mg, n = 60): 0% | TEAEs Drug-Related, e - Number of events (2 mg, n = 60): 0 | TEAEs Drug-Related, n - Number of subjects (2 mg, n = 60): 0 | TEAEs Leading to death, % (2 mg, n = 60): 0.0% | TEAEs Leading to death, e - Number of events (2 mg, n = 60): 0 | TEAEs Leading to death, n - Number of subjects (2 mg, n = 60): 0 | TEAEs Leading to dosing discontinuation, % (2 mg, n = 60): 0% | TEAEs Leading to dosing discontinuation, e - Number of events (2 mg, n = 60): 0 | TEAEs Leading to dosing discontinuation, n - Number of subjects (2 mg, n = 60): 0 | TEAEs Leading to study discontinuation, % (2 mg, n = 60): 0.0% | TEAEs Leading to study discontinuation, e - Number of events (2 mg, n = 60): 0 | TEAEs Leading to study discontinuation, n - Number of subjects (2 mg, n = 60): 0 | TEAEs, % (2 mg, n = 60): 16.7% | TEAEs, e - Number of events (2 mg, n = 60): 9 | TEAEs, n - Number of subjects (2 mg, n = 60): 7 | AESI, % (Placebo to 2 mg, n = 64): 1.7% | AESI, e - Number of events (Placebo to 2 mg, n = 64): 2 | AESI, n - Number of subjects (Placebo to 2 mg, n = 64): 1 | SAEs, % (Placebo to 2 mg, n = 64): 3.3% | SAEs, e - Number of events (Placebo to 2 mg, n = 64): 2 | SAEs, n - Number of subjects (Placebo to 2 mg, n = 64): 2 | TEAEs Drug-Related, % (Placebo to 2 mg, n = 64): 5.0% | TEAEs Drug-Related, e - Number of events (Placebo to 2 mg, n = 64): 5 | TEAEs Drug-Related, n - Number of subjects (Placebo to 2 mg, n = 64): 3 | TEAEs Leading to death, % (Placebo to 2 mg, n = 64): 0.0% | TEAEs Leading to death, e - Number of events (Placebo to 2 mg, n = 64): 0 | TEAEs Leading to death, n - Number of subjects (Placebo to 2 mg, n = 64): 0 | TEAEs Leading to dosing discontinuation, % (Placebo to 2 mg, n = 64): 0% | TEAEs Leading to dosing discontinuation, e - Number of events (Placebo to 2 mg, n = 64): 0 | TEAEs Leading to dosing discontinuation, n - Number of subjects (Placebo to 2 mg, n = 64): 0 | TEAEs Leading to study discontinuation, % (Placebo to 2 mg, n = 64): 0.0% | TEAEs Leading to study discontinuation, e - Number of events (Placebo to 2 mg, n = 64): 0 | TEAEs Leading to study discontinuation, n - Number of subjects (Placebo to 2 mg, n = 64): 0 | TEAEs, % (Placebo to 2 mg, n = 64): 21.7% | TEAEs, e - Number of events (Placebo to 2 mg, n = 64): 24 | TEAEs, n - Number of subjects (Placebo to 2 mg, n = 64): 13 | AESI, % (Total, n = 249): 1.4% | AESI, e - Number of events (Total, n = 249): 4 | AESI, n - Number of subjects (Total, n = 249): 3 | SAEs, % (Total, n = 249): 1.4% | SAEs, e - Number of events (Total, n = 249): 4 | SAEs, n - Number of subjects (Total, n = 249): 3 | TEAEs Drug-Related, % (Total, n = 249): 5.2% | TEAEs Drug-Related, e - Number of events (Total, n = 249): 15 | TEAEs Drug-Related, n - Number of subjects (Total, n = 249): 11 | TEAEs Leading to death, % (Total, n = 249): 0.0% | TEAEs Leading to death, e - Number of events (Total, n = 249): 0 | TEAEs Leading to death, n - Number of subjects (Total, n = 249): 0 | TEAEs Leading to dosing discontinuation, % (Total, n = 249): 0.9% | TEAEs Leading to dosing discontinuation, e - Number of events (Total, n = 249): 3 | TEAEs Leading to dosing discontinuation, n - Number of subjects (Total, n = 249): 2 | TEAEs Leading to study discontinuation, % (Total, n = 249): 0.0% | TEAEs Leading to study discontinuation, e - Number of events (Total, n = 249): 0 | TEAEs Leading to study discontinuation, n - Number of subjects (Total, n = 249): 0 | TEAEs, % (Total, n = 249): 19.2% | TEAEs, e - Number of events (Total, n = 249): 74 | TEAEs, n - Number of subjects (Total, n = 249): 41
